Assays:
CREB-binding protein = CREB-binding protein (Homo sapiens, UniProt Q92793); experiment: Inhibition of biotinylated-H4KAc4 binding to human His6-tagged CBP (R1081 to G1197 residues) expressed in Escherichia coli BL21(DE3) after 2.5 hrs by luminescence-based AlphaScreen assay
[1] = target: Bromodomain-containing protein 4 (Homo sapiens, UniProt O60885); experiment: Inhibition of biotinylated-H4KAc4 binding to human His6-tagged BRD4 bromodomain-1 (N44 to E168 residues) expressed in Escherichia coli BL21(DE3) at 50 uM after 2.5 hrs by luminescence-based AlphaScreen assay relative to control
[2] = target: Bromodomain adjacent to zinc finger domain protein 2B (Homo sapiens, UniProt Q9UIF8); experiment: Inhibition of biotinylated-H4KAc4 binding to human His6-tagged BAZ2B (S1858 to S1972 residues) expressed in Escherichia coli BL21(DE3) at 50 uM after 2.5 hrs by luminescence-based AlphaScreen assay relative to control
[3] = target: T1, ATPase family AAA domain-containing protein 2 (Homo sapiens) (UniProt Q6PL18); experiment: Inhibition of biotinylated-H4KAc4 binding to human His6-tagged ATAD2 expressed in Escherichia coli BL21(DE3) at 50 uM after 2.5 hrs by luminescence-based AlphaScreen assay relative to control
T1 sequence (whole entry): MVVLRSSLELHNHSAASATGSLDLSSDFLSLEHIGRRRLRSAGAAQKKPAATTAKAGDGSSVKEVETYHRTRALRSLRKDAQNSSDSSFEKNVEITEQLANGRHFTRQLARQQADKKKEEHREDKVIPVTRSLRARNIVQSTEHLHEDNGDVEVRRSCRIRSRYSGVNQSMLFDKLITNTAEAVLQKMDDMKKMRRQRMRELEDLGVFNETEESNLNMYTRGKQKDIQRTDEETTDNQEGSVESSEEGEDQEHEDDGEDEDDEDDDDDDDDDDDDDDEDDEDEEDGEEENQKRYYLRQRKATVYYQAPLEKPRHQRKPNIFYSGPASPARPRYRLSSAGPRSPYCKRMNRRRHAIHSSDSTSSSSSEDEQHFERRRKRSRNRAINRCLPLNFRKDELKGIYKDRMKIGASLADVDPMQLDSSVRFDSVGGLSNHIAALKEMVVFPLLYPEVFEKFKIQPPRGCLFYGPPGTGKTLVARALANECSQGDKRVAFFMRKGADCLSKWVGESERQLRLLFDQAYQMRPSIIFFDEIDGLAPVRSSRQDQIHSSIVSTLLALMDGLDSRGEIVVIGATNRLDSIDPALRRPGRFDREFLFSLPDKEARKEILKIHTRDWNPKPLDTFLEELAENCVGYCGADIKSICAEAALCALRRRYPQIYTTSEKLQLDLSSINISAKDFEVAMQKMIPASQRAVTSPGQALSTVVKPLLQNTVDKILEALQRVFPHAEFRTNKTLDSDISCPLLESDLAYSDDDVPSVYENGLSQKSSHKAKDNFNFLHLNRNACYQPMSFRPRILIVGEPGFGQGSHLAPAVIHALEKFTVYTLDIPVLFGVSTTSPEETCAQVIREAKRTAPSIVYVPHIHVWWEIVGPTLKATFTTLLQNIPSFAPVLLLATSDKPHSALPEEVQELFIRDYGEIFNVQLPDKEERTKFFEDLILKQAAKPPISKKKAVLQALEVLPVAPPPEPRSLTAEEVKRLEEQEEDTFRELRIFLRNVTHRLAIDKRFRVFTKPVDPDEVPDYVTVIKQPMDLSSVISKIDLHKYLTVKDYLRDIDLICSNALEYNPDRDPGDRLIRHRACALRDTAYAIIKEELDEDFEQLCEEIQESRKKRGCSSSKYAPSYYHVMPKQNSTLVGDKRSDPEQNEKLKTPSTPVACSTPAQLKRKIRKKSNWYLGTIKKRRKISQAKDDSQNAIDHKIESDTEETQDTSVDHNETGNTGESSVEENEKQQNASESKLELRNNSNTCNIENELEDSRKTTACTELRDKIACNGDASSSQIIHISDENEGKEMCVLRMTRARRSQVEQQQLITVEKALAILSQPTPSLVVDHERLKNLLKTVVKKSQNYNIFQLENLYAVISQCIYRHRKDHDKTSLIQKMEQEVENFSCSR

LNCaP = experiment: Antiproliferative activity against human LNCAP cells after 72 hrs by Cell-Titer Glo assay; format: functional, cell-based; conditions: Homo sapiens, LNCaP, 72 h; read-out: IC50

Sequence of Bromodomain adjacent to zinc finger domain protein 2B (Q9UIF8 whole entry, the tested form may be a part): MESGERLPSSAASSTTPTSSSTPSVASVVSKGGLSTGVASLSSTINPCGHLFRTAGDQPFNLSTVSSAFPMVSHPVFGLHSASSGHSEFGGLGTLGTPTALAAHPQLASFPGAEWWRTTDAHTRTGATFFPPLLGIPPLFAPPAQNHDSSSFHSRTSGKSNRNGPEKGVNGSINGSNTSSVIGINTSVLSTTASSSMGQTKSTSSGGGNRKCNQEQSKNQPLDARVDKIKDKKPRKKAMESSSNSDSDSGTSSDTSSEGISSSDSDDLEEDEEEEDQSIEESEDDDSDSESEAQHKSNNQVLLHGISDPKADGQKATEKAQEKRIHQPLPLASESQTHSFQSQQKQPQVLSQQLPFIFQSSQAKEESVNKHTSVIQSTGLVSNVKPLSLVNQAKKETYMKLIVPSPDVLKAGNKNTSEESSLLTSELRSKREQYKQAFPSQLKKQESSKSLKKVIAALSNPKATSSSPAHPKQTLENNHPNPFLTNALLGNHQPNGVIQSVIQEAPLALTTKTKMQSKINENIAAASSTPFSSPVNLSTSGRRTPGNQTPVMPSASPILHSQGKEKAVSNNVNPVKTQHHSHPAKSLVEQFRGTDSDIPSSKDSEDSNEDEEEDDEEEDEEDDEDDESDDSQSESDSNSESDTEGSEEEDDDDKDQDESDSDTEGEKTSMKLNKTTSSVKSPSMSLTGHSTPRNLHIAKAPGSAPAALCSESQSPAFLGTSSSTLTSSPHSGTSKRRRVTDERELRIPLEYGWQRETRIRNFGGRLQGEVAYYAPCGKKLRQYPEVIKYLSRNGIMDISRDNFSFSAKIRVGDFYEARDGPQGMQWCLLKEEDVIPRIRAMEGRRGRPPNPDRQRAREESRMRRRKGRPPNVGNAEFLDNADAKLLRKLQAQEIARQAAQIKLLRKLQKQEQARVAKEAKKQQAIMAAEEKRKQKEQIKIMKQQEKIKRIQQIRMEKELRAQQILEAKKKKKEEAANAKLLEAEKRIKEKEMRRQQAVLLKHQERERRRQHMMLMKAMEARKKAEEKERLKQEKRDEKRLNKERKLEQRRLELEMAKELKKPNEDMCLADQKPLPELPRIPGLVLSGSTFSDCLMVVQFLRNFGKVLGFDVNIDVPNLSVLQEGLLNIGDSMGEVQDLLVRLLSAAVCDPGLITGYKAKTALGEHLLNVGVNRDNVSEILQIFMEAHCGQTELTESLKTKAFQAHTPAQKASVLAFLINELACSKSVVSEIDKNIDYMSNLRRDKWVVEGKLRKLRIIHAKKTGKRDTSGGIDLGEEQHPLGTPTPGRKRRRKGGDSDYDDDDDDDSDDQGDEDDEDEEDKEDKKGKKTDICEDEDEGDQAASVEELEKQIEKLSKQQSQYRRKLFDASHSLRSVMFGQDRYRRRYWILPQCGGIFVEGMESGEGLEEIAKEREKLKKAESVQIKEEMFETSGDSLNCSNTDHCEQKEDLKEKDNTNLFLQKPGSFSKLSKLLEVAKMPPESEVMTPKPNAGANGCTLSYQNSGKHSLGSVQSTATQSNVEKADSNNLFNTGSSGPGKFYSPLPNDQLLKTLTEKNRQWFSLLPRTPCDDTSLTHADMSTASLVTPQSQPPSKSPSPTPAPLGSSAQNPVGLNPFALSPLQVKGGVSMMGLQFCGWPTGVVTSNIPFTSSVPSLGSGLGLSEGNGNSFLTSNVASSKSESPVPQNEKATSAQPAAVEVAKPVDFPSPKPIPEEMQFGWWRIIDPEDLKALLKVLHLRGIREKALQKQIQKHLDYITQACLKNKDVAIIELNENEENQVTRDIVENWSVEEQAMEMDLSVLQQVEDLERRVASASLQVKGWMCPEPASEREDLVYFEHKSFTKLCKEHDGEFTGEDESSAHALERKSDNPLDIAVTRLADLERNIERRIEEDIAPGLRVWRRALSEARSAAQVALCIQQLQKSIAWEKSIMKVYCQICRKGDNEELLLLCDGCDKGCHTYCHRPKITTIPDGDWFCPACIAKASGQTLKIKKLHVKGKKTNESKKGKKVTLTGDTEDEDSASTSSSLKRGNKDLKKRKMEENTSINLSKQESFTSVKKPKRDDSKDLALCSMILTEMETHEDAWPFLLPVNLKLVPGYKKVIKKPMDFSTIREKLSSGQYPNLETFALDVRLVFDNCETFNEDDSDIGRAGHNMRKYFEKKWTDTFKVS
Sequence of CREB-binding protein (Q92793 whole entry, the tested form may be a part): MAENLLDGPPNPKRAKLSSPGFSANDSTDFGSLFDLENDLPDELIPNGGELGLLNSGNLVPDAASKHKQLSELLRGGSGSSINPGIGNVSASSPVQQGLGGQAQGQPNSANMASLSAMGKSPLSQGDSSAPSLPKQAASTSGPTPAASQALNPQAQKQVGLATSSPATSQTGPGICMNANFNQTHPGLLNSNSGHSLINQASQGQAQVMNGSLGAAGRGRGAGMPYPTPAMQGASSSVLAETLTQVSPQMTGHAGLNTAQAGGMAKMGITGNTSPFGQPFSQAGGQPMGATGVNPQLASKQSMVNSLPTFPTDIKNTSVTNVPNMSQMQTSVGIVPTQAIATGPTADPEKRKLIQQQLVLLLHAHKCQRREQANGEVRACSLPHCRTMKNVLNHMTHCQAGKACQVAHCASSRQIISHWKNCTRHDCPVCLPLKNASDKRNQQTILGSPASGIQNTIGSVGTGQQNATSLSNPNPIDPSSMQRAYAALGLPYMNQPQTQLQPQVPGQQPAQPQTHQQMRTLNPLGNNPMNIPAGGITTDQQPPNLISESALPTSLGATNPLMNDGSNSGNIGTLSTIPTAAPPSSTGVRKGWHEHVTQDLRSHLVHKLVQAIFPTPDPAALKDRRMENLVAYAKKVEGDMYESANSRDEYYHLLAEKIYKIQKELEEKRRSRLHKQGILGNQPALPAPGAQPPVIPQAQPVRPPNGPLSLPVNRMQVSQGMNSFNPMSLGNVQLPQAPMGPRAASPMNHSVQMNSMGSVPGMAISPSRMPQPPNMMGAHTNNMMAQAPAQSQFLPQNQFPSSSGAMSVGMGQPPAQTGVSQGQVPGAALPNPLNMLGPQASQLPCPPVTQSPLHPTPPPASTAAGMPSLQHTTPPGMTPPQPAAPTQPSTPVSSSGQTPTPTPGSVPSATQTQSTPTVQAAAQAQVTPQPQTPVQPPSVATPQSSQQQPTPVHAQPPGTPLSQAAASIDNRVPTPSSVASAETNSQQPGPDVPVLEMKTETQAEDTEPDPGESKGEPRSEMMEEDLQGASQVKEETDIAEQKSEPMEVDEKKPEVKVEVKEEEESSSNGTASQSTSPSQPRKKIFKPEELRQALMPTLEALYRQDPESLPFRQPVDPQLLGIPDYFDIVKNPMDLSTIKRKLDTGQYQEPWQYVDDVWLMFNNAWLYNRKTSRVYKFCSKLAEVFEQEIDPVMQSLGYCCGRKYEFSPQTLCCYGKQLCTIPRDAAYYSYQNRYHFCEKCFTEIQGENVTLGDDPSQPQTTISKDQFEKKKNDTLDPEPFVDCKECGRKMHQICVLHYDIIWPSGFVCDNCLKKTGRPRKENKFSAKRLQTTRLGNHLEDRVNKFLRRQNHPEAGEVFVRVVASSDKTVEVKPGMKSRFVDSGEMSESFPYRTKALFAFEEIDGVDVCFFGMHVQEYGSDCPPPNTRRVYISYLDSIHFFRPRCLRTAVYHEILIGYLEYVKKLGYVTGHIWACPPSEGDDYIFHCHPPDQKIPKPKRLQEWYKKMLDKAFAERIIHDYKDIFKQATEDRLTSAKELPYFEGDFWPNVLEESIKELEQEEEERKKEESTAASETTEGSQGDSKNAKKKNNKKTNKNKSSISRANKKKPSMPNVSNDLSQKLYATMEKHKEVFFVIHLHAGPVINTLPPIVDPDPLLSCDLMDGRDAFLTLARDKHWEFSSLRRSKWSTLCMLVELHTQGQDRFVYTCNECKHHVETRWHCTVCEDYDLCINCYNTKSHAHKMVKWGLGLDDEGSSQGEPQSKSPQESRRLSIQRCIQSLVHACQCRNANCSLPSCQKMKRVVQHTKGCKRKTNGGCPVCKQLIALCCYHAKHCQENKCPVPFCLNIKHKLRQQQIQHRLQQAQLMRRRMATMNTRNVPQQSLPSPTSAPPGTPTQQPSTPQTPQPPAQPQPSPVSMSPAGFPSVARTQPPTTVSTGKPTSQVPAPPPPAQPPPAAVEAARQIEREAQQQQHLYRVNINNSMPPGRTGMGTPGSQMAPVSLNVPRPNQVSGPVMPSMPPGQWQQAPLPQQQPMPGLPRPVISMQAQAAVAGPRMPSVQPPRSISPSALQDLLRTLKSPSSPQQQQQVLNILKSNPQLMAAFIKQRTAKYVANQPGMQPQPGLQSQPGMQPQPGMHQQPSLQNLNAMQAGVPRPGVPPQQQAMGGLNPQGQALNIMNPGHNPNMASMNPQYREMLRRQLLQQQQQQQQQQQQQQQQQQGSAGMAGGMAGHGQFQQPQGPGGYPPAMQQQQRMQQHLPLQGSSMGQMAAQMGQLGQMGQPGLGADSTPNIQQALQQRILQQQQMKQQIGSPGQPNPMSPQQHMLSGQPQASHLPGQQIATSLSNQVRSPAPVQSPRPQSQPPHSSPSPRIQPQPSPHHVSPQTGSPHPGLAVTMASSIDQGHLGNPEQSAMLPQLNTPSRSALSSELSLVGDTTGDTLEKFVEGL

Row | SMILES | IC50 (CREB-binding protein) [µM] | other results
1 | COC(=O)c1cccc(NC(=O)c2cn(C(C)=O)c3ccccc23)c1 | 3.39 | 
2 | CC(=O)c1cccc(NC(=O)c2cn(C(C)=O)c3ccccc23)c1 | 25.4 | 
3 | CC(=O)n1cc(C(=O)Nc2cc(C(=O)O)ccc2NC2CC2)c2ccccc21 | 4.84 | 
4 | CC(=O)n1cc(C(=O)Nc2cc(C(=O)O)cc(-c3cccc(F)c3)c2)c2ccccc21 | 3.52 | 
5 | CC(=O)n1cc(C(=O)Nc2cc(C(=O)O)cc(-c3ccc4c(cnn4C)c3)c2)c2ccccc21 | 1 | 
6 | CC(=O)c1cn(CCC(=O)O)c2ccccc12 | 16.7 | inhibition [1]: 34%; inhibition [2]: 21%; inhibition [3]: 39%
7 | CC(=O)n1cc(C(=O)Nc2cc(C(=O)O)cc(-c3cncc(C)c3)c2)c2ccccc21 | 1.69 | 
8 | CC(=O)n1cc(C(=O)Nc2cc(C(=O)O)ccc2NCC2CC2)c2ccccc21 | 21.6 | 
9 | CC(=O)c1cn(CC(=O)N2CCC[C@H](C(=O)O)C2)c2ccccc12 | 6.8 | 
10 | CC(=O)n1cc(C(=O)Nc2cc(C(=O)O)ccc2NC2CCOCC2)c2ccccc21 | 8.5 | 
11 | CCOc1ccc2c(c1)c(C(=O)Nc1cc(C(=O)O)cc(-c3ccco3)c1)cn2C(C)=O | 3.89 | 
12 | CC(=O)c1nn(-c2ccccc2)c(C)c1C(C)=O | > 50 | inhibition [1]: 5%; inhibition [2]: 6%; inhibition [3]: 19%
13 | CC(=O)n1cc(C(=O)Nc2cc(C(=O)O)cc(C3CCCC3)c2)c2ccccc21 | 2.99 | 
14 | Nc1c(Nc2ccccc2)c2ccccc2oc1=O | > 50 | inhibition [1]: 8%; inhibition [2]: 32%; inhibition [3]: 32%
15 | CC(=O)n1cc(C(=O)NCCN2CCNC2=O)c2ccccc21 | 32.6 | 
16 | CC(=O)n1cc(C(=O)Nc2cc(C(=O)O)ccc2NC2CCCCCC2)c2ccccc21 | 1.67 | 
17 | CCc1cc(NC(=O)c2cn(C(C)=O)c3ccccc23)cc(C(=O)O)c1 | 2.8 | 
18 | CC(=O)n1cc(C(=O)Nc2cc(C(=O)O)cc(C3CC3)c2)c2ccccc21 | 2.74 | 
19 | COc1ccc2c(c1)c(C(=O)Nc1cc(C(=O)O)cc(-c3ccc4c(cnn4C)c3)c1)cn2C(C)=O | 0.29 | 
20 | CC(=O)n1cc(C(=O)Nc2cc(CCc3ccccc3)cc(C(=O)O)c2)c2ccccc21 | 1.96 | 
21 | CC(=O)n1cc(C(=O)Nc2cc(C(=O)O)cc(-c3ccco3)c2)c2cc(O)ccc21 | 0.17 | 
22 | CCCOc1ccc2c(c1)c(C(=O)Nc1cc(C(=O)O)cc(-c3ccco3)c1)cn2C(C)=O | 26.2 | 
23 | CC(=O)n1cc(C(=O)Nc2cc(Br)cc(C(=O)O)c2)c2ccccc21 | 4.7 | 
24 | CC(=O)OCc1cn(C(C)=O)c2ccccc12 | > 50 | inhibition [1]: 17%; inhibition [2]: 10%; inhibition [3]: 32%
25 | CC(=O)n1cc(C(=O)Nc2cc(C(=O)O)cc(C3CCCCC3)c2)c2ccccc21 | 2.48 | 
26 | CC(=O)n1cc(C(=O)Nc2cc(C(=O)O)cc(-c3cccc(Cl)c3)c2)c2ccccc21 | 1.44 | 
27 | CC(=O)n1cc(C(=O)Nc2cc(C(=O)O)ccc2NCC2CCOCC2)c2ccccc21 | 6.36 | 

Row | SMILES | IC50 (CREB-binding protein) [µM] | other results
28 | Cn1nc(-c2ccc(Cl)cc2)c2ccccc2c1=O | > 50 | inhibition [1]: 57%; inhibition [2]: 34%; inhibition [3]: 49%
29 | CC(=O)c1cn(CC(=O)N2CCC(C(=O)O)CC2)c2ccccc12 | 13.6 | 
30 | CCCCNc1ccc(C(=O)O)cc1NC(=O)c1cn(C(C)=O)c2ccccc12 | > 50 | 
31 | CC(=O)n1cc(C(=O)Nc2cc(C(=O)O)ccc2NC2CCCC2)c2ccccc21 | 1.89 | 
32 | CC(=O)n1cc(C(=O)Nc2cc(C(=O)O)cc(-c3cc4ccccc4o3)c2)c2ccccc21 | 2.81 | 
33 | CC(=O)n1cc(C(=O)Nc2cc(C(=O)O)ccc2NCC(C)C)c2ccccc21 | 2.33 | 
34 | CC(=O)n1cc(C(=O)Nc2cc(C(=O)O)ccc2NCc2ccccc2)c2ccccc21 | 4.11 | 
35 | COC(=O)[C@H]1CCCN(C(=O)Cn2cc(C(C)=O)c3ccccc32)C1 | 7.09 | 
36 | CC(=O)n1ncc2c([N+](=O)[O-])cc([N+](=O)[O-])cc21 | 9.11 | inhibition [1]: 98%; inhibition [2]: 97%; inhibition [3]: 98%
37 | CCCNc1ccc(C(=O)O)cc1NC(=O)c1cn(C(C)=O)c2ccccc12 | 6.56 | 
38 | CC(=O)c1nn(-c2ccccc2)cc1C(=O)c1ccccc1 | > 50 | inhibition [1]: 27%; inhibition [2]: 21%; inhibition [3]: 35%
39 | Nc1c(N2CCCC2)c2ccccc2oc1=O | > 50 | inhibition [1]: 47%; inhibition [2]: 69%; inhibition [3]: 52%
40 | CC(=O)n1cc(C(=O)Nc2cc(C(=O)O)ccc2NCC2CCCCC2)c2ccccc21 | 2.33 | 
41 | COC(=O)C1CCN(C(=O)Cn2cc(C(C)=O)c3ccccc32)CC1 | 19.8 | 
42 | CC(=O)c1coc2c1cc(O)c1ccccc12 | 41.4 | inhibition [1]: 51%; inhibition [2]: 36%; inhibition [3]: 55%
43 | CC(=O)n1cc(C(=O)Nc2cc(C(=O)O)cc(-c3cccc(C(F)(F)F)c3)c2)c2ccccc21 | 4.05 | 
44 | CC(=O)NCCNC(=O)c1cn(C(C)=O)c2ccccc12 | 33.8 | 
45 | O=C1N=CC(c2cccc([N+](=O)[O-])c2)c2ccccc21 (configuration not stated) | > 50 | inhibition [1]: 23%; inhibition [2]: 59%; inhibition [3]: 87%
46 | CNC(=O)c1ccc(N2C(=S)N(c3ccc(C#N)c(C(F)(F)F)c3)C(=O)C2(C)C)cc1F [ENZALUTAMIDE] |  | IC50 (LNCaP): 33.8 µM
47 | CC(=O)c1nn(-c2ccccc2)c2c1CCCC2 | > 50 | inhibition [1]: -2%; inhibition [3]: 6%
48 | COc1ccc2c(c1)c(C(=O)Nc1cc(C(=O)O)cc(-c3ccc4c(c3)OCCO4)c1)cn2C(C)=O | 0.69 | 
49 | COc1cccc(-c2cc(NC(=O)c3cn(C(C)=O)c4ccccc34)cc(C(=O)O)c2)c1 | 2.07 | 
50 | CC(=O)n1c(C#N)nc2ccccc21 | > 50 | inhibition [1]: 20%; inhibition [2]: 24%; inhibition [3]: 29%
51 | CCOC(=O)CCn1cc(C(C)=O)c2ccccc21 | 39.6 | 
52 | CC(=O)Nc1ccc2c(c1)c1ccccc1n2C(C)=O | > 50 | inhibition [1]: -3%; inhibition [2]: 10%; inhibition [3]: 4%
53 | CC(=O)n1cc(C(=O)Nc2cc(C(=O)O)cc(-c3ccccc3)c2)c2ccccc21 | 1.86 | 
54 | CC(=O)n1cc(C(=O)Nc2cc(CC(C)C)cc(C(=O)O)c2)c2ccccc21 | 3.39 | 
